How the values were obtained:
[1] = target: T1, TYK2 (Homo sapiens, UniProt P29597); assay: HEK-Blue IFNα/β reporter assay (SEAP) for TYK2 pseudokinase inhibition; type: cell-based; settings: HEK-Blue IFNα/β cells, 1 ng/mL human recombinant IFNα
Summary of the method: (§1)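 HEK-Blue cells carrying cytokine receptor and STAT3 or STAT1 SEAP reporter, pretreated 60 min with compound, then stimulated with 10 ng/mL IL-23 (22–24 h) or 1 ng/mL IFNα (16–18 h). SEAP read with QUANTI-Blue; IC50 by non-linear regression versus no-inhibitor and unstimulated controls.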

[2] = target: T2, TYK2-JH1 (Homo sapiens, UniProt P29597); assay: HTRF-based selectivity assay, TYK2 catalytic domain; type: biochemical; settings: kinase domain (JH1), ATP 20 μM
T2 construct: recombinant purified His or GST-tagged catalytic domain for each enzyme; made in house
T2 sequence (P29597 897-1176 limits assumed): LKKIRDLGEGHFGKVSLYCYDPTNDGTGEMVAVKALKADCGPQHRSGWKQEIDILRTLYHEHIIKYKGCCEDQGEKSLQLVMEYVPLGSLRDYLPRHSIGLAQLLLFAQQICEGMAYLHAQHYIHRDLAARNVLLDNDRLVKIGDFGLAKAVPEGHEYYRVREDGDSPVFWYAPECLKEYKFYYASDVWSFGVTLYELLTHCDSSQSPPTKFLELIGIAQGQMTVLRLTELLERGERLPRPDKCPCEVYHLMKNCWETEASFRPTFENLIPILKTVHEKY
Description: (§2) The ability of compounds to inhibit the activity of JAK1, JAK2, JAK3 and TYK2 is measured using a recombinant purified His or GST-tagged catalytic domain for each enzyme (JAK1, JAK2 and TYK2 are generated in-house; JAK3 was purchased from Carna biosciences, Cat #08-046) in an HTRF format biochemical assay. The reactions employs a commercial peptide substrate from Cisbio (Cat #62TK0PEC). The basic assay protocol is as follows: first, 2.5 µL of diluted compounds (4×) in DMSO are dispensed into a 384-well Optiplate. Next, 2.5 μL of enzyme (final concentrations for enzymes are: TYK2-700 ng/mL, JAK1-80.6 ng/mL, JAK2-2.1 ng/mL and JAK3-171.8 ng/mL) is added and incubated at RT for 5-20 min. Finally, 5 μl of mixture of 2×ATP [Final concentration 20 μM for TYK2, 21.43 μM for JAK1, 14.7 μM for JAK2 and 2.12 μM for JAK3]+2× Substrate [Final concentration 217 nM for TYK2, 454.7 nM for JAK1, 200 nM for JAK2 and 257.4 nM for JAK3] is added to 384 well Optiplate. Composition of Kinase assay buffer used in the assay is as follows: HEPES 50 mM, EGTA 1 mM, MgCl2 10 mM, DTT2 mM, Tween-20 0.010 and water. Then the plates are shaken and then incubated at 26.5° C. for 60 min. At the end of the incubation, 10 μL of mixture of 2× detection mix [(EU3+Cryptate (1×)+Streptavidin-XL665 (final concentration: 62.5 nM) (HTRF KinEASE-TK kit Cat #62TK0PEC)] is added to the assay plate, shaken and incubated at 26.5° C. for 60 min. Plates are then read on a Perkin Elmer Envision for HTRF signal (665 nm reading/615 nm reading). After normalization to untreated controls, the percent inhibition of the HTRF signal at each compound concentration is calculated. The plot of percent inhibition versus the log of compound concentration is fit with a 4-parameter dose response equation to calculate IC50 values.

[3] = target: T3, JAK1-JH1 (Homo sapiens, UniProt P23458); assay: HTRF-based selectivity assay, JAK1 catalytic domain; type: biochemical; settings: kinase domain (JH1), ATP 21.43 μM
T3 construct: recombinant purified His or GST-tagged catalytic domain for each enzyme; made in house
T3 sequence (P23458 875-1153 limits assumed): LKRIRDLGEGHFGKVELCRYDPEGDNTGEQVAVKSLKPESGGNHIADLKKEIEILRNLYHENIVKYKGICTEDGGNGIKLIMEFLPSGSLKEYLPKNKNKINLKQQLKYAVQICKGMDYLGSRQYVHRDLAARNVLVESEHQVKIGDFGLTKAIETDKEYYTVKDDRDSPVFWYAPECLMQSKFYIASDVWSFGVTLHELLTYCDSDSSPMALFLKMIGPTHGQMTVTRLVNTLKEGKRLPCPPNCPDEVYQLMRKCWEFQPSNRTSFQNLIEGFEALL
Description: as §2

[4] = target: T4, JAK2-JH1 (Homo sapiens, UniProt O60674); assay: HTRF-based selectivity assay, JAK2 catalytic domain; type: biochemical; settings: kinase domain (JH1), ATP 14.7 μM
T4 construct: recombinant purified His or GST-tagged catalytic domain for each enzyme; made in house
T4 sequence (O60674 849-1124 limits assumed): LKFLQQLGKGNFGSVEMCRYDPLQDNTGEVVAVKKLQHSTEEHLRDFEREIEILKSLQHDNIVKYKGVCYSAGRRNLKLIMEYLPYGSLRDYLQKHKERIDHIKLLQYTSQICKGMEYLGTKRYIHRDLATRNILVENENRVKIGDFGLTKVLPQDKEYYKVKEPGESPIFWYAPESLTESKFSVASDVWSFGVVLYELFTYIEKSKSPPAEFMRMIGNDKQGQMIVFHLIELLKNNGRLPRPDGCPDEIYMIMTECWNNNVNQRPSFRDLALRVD
Description: as §2

[5] = target: T5, JAK3-JH1 (Homo sapiens, UniProt P52333); assay: HTRF-based selectivity assay, JAK3 catalytic domain; type: biochemical; settings: kinase domain (JH1), ATP 2.12 μM
T5 construct: recombinant purified His or GST-tagged catalytic domain for each enzyme; purchased Carna biosciences 08-046
T5 sequence (P52333 822-1111 limits assumed): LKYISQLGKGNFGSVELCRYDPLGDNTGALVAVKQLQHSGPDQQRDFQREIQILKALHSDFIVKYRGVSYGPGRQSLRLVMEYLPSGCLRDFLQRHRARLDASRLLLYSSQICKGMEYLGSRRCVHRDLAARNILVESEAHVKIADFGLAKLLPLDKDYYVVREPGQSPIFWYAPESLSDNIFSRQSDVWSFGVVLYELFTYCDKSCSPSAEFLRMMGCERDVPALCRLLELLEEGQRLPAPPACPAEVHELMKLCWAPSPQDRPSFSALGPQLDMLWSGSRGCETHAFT
Description: as §2

[6] = tested on: IL-2; assay: Selectivity assay (SEAP) IL-2 reporter cells; type: cell-based; settings: Homo sapiens, IL-2 reporter cells on HEK293 background, read-out: Selectivity assays (SEAP) nM or E-Max % IL-2
[7] = tested on: IFN-γ; assay: Selectivity assay (SEAP) IFN-γ reporter cells; type: cell-based; settings: Homo sapiens, IFN-γ reporter cells on HEK293 background, read-out: Selectivity assays (SEAP) nM or E-Max % IFN-γ
[8] = tested on: IL-2-pSTAT5; assay: STAT phosphorylation assay IL-2-pSTAT5; type: cell-based; settings: Homo sapiens, 0.25 h; IL-2 (20 ng/ml) 15 min, phospho-STAT5 Western blot normalized to GAPDH; read-out: Selectivity assays (STATs) % Inhibition IL-2-pSTAT5
Description: 0.3 to 0.5×10^6 Reporter cells (IL-23, IL-2, IFNα or IFNγ on HEK293 background purchased from InvivoGen) were seeded per well in 0.8 mL of DMVEM cell medium supplemented with 100 U/ml-100 μg/ml Pen-Strep and 10% FBS in 12 or 6-well plates and incubated overnight at 370 C, 5% CO2, 95% humidity. 0.1 mL test compounds serially diluted in DMSO and further diluted (10×) in intermediate plate containing cell treatment medium were prepared and added to the wells. The plates were incubated at 37° C. for 1 hr. Control wells contained 1′% DMSO prepared in cell medium. Post incubation, respective reporter cells were stimulated with 0.1 mL of either IL-23 (50 ng/ml; Miltenyl Biotech, cat #130-095-758) for 45 min or IL-2 (20 ng/ml) (Miltenyl Biotech, cat #130-097-742) for 15 min or IFNα/β (10 ng/ml) (Invivogen, cat #rcyc-hifna2b) for 15 min or IFN-γ (50 ng/ml) (Invivogen, cat #rcyec-hifng) for 15 min. Post stimulation cells were washed with DPBS once and lysed with 100 μL of RIPA buffer and placed on ice for 5 min. […]
Samples were diluted 5× in cell lysis buffer and total protein concentration was determined in 96-well using Bradford Protein Assay following manufacturer's instructions. […]
(§3) Western blot results were analysed using Compass 2.7.1 software and phospho-STAT quantity (AUC values) was normalized to GAPDH quantity (AUC values) for each sample.

[9] = tested on: IFN-γ-pSTAT1; assay: STAT phosphorylation assay IFN-γ-pSTAT1; type: cell-based; settings: Homo sapiens, 0.25 h; IFN-γ (50 ng/ml) 15 min, phospho-STAT1 Western blot normalized to GAPDH; read-out: Selectivity assays (STATs) % Inhibition IFN-γ-pSTAT1
Description: 0.3 to 0.5×10^6 Reporter cells (IL-23, IL-2, IFNα or IFNγ on HEK293 background purchased from InvivoGen) were seeded per well in 0.8 mL of DMVEM cell medium supplemented with 100 U/ml-100 μg/ml Pen-Strep and 10% FBS in 12 or 6-well plates and incubated overnight at 370 C, 5% CO2, 95% humidity. 0.1 mL test compounds serially diluted in DMSO and further diluted (10×) in intermediate plate containing cell treatment medium were prepared and added to the wells. The plates were incubated at 37° C. for 1 hr. Control wells contained 1′% DMSO prepared in cell medium. Post incubation, respective reporter cells were stimulated with 0.1 mL of either IL-23 (50 ng/ml; Miltenyl Biotech, cat #130-095-758) for 45 min or IL-2 (20 ng/ml) (Miltenyl Biotech, cat #130-097-742) for 15 min or IFNα/β (10 ng/ml) (Invivogen, cat #rcyc-hifna2b) for 15 min or IFN-γ (50 ng/ml) (Invivogen, cat #rcyec-hifng) for 15 min. Post stimulation cells were washed with DPBS once and lysed with 100 μL of RIPA buffer and placed on ice for 5 min. The lysates were then transferred to 1.5 mL Eppendorf tubes and centrifuged for 5 minutes at 10000 rpm at 4° C. and the supernatants either stored at −80° C. or used for protein estimation.
Samples were diluted 5× in cell lysis buffer and total protein concentration was determined in 96-well using Bradford Protein Assay following manufacturer's instructions. Western blot assay was performed using Protein Simple Wes Master Kit (SM-W004/DM-001) and device, following manufacturer's instructions. 1 to 2 mg/mL of total proteins were loaded per sample in 4 μL volume; phospho-STAT1, 3 or 5 antibodies (1:25) and GAPDH antibodies were diluted as indicated.
as §3

[10] = target: T1, TYK2; assay: HEK-Blue IL-23 reporter assay (SEAP) for TYK2 pseudokinase inhibition; type: cell-based; design: HEK-Blue™ IL-23 and IFNα/β cells with a stably-integrated cytokine receptor and STAT3 or STAT1; host or cells: HEK-Blue IL-23 / HEK-Blue IFNα/β cells (HEK293 background); settings: HEK-Blue IL-23 cells, 10 ng/mL human recombinant IL-23, SEAP reporter; read-out: IL23 IC50
Summary of the method: as §1

T1 sequence (P29597 whole entry): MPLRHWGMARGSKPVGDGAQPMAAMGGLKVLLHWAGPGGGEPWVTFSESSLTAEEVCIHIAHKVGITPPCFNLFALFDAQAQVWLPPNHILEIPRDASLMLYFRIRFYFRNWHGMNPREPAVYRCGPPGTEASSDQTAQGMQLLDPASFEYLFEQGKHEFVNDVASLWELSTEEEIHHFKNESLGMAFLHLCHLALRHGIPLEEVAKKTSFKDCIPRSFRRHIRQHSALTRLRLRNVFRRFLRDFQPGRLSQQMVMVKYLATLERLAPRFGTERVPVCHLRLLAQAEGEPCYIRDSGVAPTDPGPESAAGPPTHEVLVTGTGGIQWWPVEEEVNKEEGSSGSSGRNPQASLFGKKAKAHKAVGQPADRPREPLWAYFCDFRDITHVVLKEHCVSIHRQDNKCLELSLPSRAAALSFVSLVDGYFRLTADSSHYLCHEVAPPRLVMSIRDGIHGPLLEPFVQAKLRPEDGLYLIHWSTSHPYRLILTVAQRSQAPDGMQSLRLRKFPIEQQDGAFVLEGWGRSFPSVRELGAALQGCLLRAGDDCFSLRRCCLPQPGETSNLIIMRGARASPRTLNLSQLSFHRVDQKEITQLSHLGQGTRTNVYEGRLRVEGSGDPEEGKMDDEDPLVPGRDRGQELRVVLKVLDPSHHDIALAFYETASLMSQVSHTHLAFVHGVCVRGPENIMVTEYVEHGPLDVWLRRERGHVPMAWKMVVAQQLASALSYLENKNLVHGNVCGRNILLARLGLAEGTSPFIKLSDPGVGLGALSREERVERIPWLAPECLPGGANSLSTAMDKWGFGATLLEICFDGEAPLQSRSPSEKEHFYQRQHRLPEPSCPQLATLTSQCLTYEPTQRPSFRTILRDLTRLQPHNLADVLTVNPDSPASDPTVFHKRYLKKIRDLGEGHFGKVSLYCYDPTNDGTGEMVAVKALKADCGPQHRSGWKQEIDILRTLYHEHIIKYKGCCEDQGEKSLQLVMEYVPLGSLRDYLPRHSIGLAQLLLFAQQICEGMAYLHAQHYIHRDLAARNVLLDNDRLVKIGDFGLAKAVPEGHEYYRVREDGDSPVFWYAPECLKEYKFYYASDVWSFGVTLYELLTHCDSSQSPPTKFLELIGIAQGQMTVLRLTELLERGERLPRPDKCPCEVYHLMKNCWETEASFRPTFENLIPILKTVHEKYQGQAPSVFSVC

Row | Structure (SMILES) | IC50 [1] | IC50 [2] | IC50 [3] | IC50 [4] | IC50 [5] | IC50 [6] | IC50 [7] | IC50 [8] | IC50 [9] | IC50 [10]
1 | Cc1cc(Nc2cc3c(cn2)c(=O)[nH]n3-c2ccccc2)nc(C)n1 [Compound I-3, 6-((2,6-dimethylpyrimidin-4-yl)amino)-1-phenyl-1,2-dihydro-3H-pyrazolo[4,3-c]pyridin-3-one] | < 10 µM | 10 to 30 µM | > 90 µM | < 10 µM | < 10 µM | 30000 to 90000 nM | 10000 to 30000 nM | > 90 µM | > 90 µM | < 10 µM
2 | O=C(Nc1cc2c(cn1)c(=O)[nH]n2-c1ccccc1)C1CC1 [Compound I-1, N-(3-oxo-1-phenyl-2,3-dihydro-1H-pyrazolo[4,3-c]pyridin-6-yl)cyclopropanecarboxamide] | < 10 µM | 30 to 90 µM | 30 to 90 µM | 30 to 90 µM | 10 to 30 µM | > 90000 nM | 30000 to 90000 nM | – | > 90 µM | < 10 µM
3 | COc1cccc(-n2[nH]c(=O)c3cnc(Nc4cc(C)nc(C)n4)cc32)c1 [Compound I-17, 6-((2,6-dimethylpyrimidin-4-yl)amino)-1-(3-methoxyphenyl)-1,2-dihydro-3H-pyrazolo[4,3-c]pyridin-3-one] | < 10 µM | 30 to 90 µM | > 90 µM | 10 to 30 µM | 10 to 30 µM | > 90000 nM | 30000 to 90000 nM | 30 to 90 µM | > 90 µM | < 10 µM

From patent US12668594B2, “TYK2 inhibitors and uses thereof” (Sudo Biosciences Limited, priority 2020, dated 2026)
